Structures are written as SMILES.

Data on six compounds can be found in the SangsterLogP compilation.

The nature of the series: method code SF-AS, from PMID: 43458.
The compound `CC(C)COC(=O)c1cc(O)c(O)c(O)c1` registered a logP of 2.46.

Take `COC(=O)c1cc(O)c(O)c(O)c1`: the logP worked out at 0.86.

On to `CCCCCCCCOC(=O)c1cc(O)c(O)c(O)c1`, for which the logP stood at 3.66.

For `CCCOC(=O)c1cc(O)c(O)c(O)c1`, the logP was 1.8.

`CCOC(=O)c1cc(O)c(O)c(O)c1` displayed a logP of 1.3.

`CCCCOC(=O)c1cc(O)c(O)c(O)c1` displayed a logP of 2.41.
